Results published in patent US20250290915A1, “METHOD FOR PREDICTING RESPONSIVENESS TO THERAPY” (CANCERTAIN LIMITED, priority 2022, published 2025).

Key:
Format in all cases: cell-based, human
[1] = tested on: Circulating Tumour Cells (CTCs) from a patient with sex cord stromal tumour, ovarian tumour; experiment: Drug response score assay on CTCs from blood, Example 4; design: key to Drug response score, conc. 1 / Drug response score, conc. 2 / Drug response score, conc. 3 / Drug response score, conc. 4: normalized drug response metric (Gupta et al. 2020); details: for Drug response score, conc. 1: conc. 1: Cyclo 2.5 μg/ml, Vinc 10 ng/ml, Etop 1 μg/ml, Bini 100 ng/ml, Doxo 10 ng/ml; for Drug response score, conc. 1 / Drug response score, conc. 2 / Drug response score, conc. 3 / Drug response score, conc. 4: CTCs, t96h; for Drug response score, conc. 2: conc. 2: Cyclo 10 μg/ml, Vinc 20 ng/ml, Etop 4 μg/ml, Bini 200 ng/ml, Doxo 30 ng/ml; for Drug response score, conc. 3: conc. 3: Cyclo 40 μg/ml, Vinc 40 ng/ml, Etop 20 μg/ml, Bini 400 ng/ml, Doxo 90 ng/ml; for Drug response score, conc. 4: conc. 4: Cyclo 160 μg/ml, Vinc 80 ng/ml, Etop 100 μg/ml, Bini 800 ng/ml, Doxo 270 ng/ml; for effectiveness on Circulating Tumour Cells (CTCs) under laboratory conditions / Drug sensitivity as calculated by the assay (interpretation of Drug Response Scores): sex cord stromal / ovarian tumour CTCs; for Drug sensitivity as calculated by the assay (interpretation of Drug Response Scores): Table 14
Description: (§1) CD45^+ cells and circulating tumour cells (CTCs) were isolated from a blood sample provided by each subject.
(§2) CD45 separation was performed by adding human CD45 microbeads (50 μl/ml blood), incubating for 15 minutes at 4° C. and then processing using an AutoMACS machine. This separates the blood sample into CD45^+ and CD45^−cells in 2 separate falcons. The falcon tubes are then centrifuged at 1200 rpm for 5 minutes.
(§3) The supernatant was removed from the CD45^−falcon tube, and the CD45^−cells contacted with 100 μl of FcR block and 100 μl of CD326 (EpCAM) MicroBeads, followed by incubation at […] 4° C. for 30 minutes. The CD45^−cells were then processed using an AutoMACS machine to separate the EpCAM positive and negative cells into 2 separate falcon tubes. The EpCAM-cells were discarded. The supernatant was removed from the EpCAM^+ cells, and the cells resuspended in DMEM with 2 μl Cell Tox, 2 μl MT and 2 μl MT. 20 μl of the resuspended pellet was then added to all sample wells excluding a blank. After all wells are added to, a cell count was conducted on the […] to determine the number of circulating tumour cells (CTCs).
(§4) The different cell types were each divided equally into populations, depending on the number of drugs/concentrations to be tested and plated on a cell-culture plate pre-coated with a scaffold of polycaprolactone (PCL) electrospun fibres and incubated at 37° C., 5% CO2, for 5 to (typically 10) minutes to facilitate cell attachment. After attachment, an initial imaging step was carried out using the RealTime-Glo™ MT assay from Promega (Catalogue No. G9711)) and the CellTox™ Green Cytotoxicity Assay (Promega, Catalogue No. G8741), carried out according to manufacturer's instructions. Following this initial imagining, the immunotherapeutic and/or chemotherapeutic agents were added to the cell populations as indicated below. After 10 minutes, the imagining step was repeated. The cell populations were then incubated at 37° C., 5% CO2 for 48 hours. The imaging step was then repeated. The cell populations were then re-dosed with the same immunotherapeutic and/or chemotherapeutic agents as indicated below, and incubated at 37° C., 5% CO2 for a further 48 hours. After this second 48 hour incubation, the imagining step was repeated for a final time.
(§5) At the end of this culture period, dose response scores were calculated using a normalized drug response metric as described in Gupta et al. (Communications Biology volume 3, Article number: 42 (2020), https://doi.org/10.1038/s42003-020-0765-z). The start readout for a given immunotherapeutic or chemotherapeutic agent at a given concentration was the to readout for said immunotherapeutic or chemotherapeutic agent at a specified concentration. The end readout for a given immunotherapeutic or chemotherapeutic agent at a given concentration was the final timepoint reading (t96h) for said immunotherapeutic or chemotherapeutic agent at a specified concentration.
(§6) The positive control start readout for a given drug/concentration was the to readout for the corresponding drug at a specified concentration. The positive control end readout for the corresponding drug at a specified concentration was the final timepoint reading (t96h) for the corresponding blank well.
(§7) The negative control start and end readouts for a given immunotherapeutic or chemotherapeutic agent at a given concentration were the to and final timepoint reading (t96h) respectively for blank cell or blank immuno cell well respectively.
(§8) The sensitivity or resistance of a subject's cancer to a given immunotherapeutic or chemotherapeutic agent was determined based on the calculated drug response score as shown in Table 2.
Blood samples from a patient with sex cord stromal tumour, ovarian tumour (epitheliod neoplasm, stage 3 recurrence after surgery (resection) and previous chemotherapy) were received on 19 Jul. 2021 and tested using a 5 drug panel. […]

[2] = tested on: Circulating Tumour Cells (CTCs) from a patient with colon cancer (sigmoid colon cancer); experiment: Drug response score assay on CTCs from blood, Example 8; design: key to Drug response score, conc. 1 / Drug response score, conc. 2 / Drug response score, conc. 3 / Drug response score, conc. 4: normalized drug response metric (Gupta et al. 2020); details: for Drug response score, conc. 1: conc. 1 of each drug as in Table 24; for Drug response score, conc. 1 / Drug response score, conc. 2 / Drug response score, conc. 3 / Drug response score, conc. 4: CTCs, t96h; for Drug response score, conc. 2: conc. 2 of each drug as in Table 24; for Drug response score, conc. 3: conc. 3 of each drug as in Table 24; for Drug response score, conc. 4: conc. 4 of each drug as in Table 24; for Drug sensitivity as calculated by the assay (interpretation of Drug Response Scores): Table 26
Description: as §1, §2, §3
as §4, with “After” for “The different cell types were each divided equally into populations, depending on the number of drugs/concentrations to be tested and plated on a cell-culture plate pre-coated with a scaffold of polycaprolactone (PCL) electrospun fibres and incubated at 37° C., 5% CO2, for 5 to (typically 10) minutes to facilitate cell attachment. After”
as §5, §6, §7, §8
Blood samples from a patient with colon cancer (sigmoid colon cancer) were received on 8 Mar. 2022 and tested using a 9 drug panel.
Chemotherapeutic agents were tested as in Table 24.

[3] = tested on: Circulating Tumour Cells (CTCs, EpCam+CD45−) from a patient with stage II synovial sarcoma; experiment: Drug response score assay (RealTime-Glo MT / CellTox Green, PCL scaffold) on CTCs from blood, Example 1; design: key to Drug response score, conc. 1 / Drug response score, conc. 2 / Drug response score, conc. 3 / Drug response score, conc. 4: normalized drug response metric per Gupta et al. 2020; details: for Drug response score, conc. 1: conc. 1: Doxo 10 ng/ml, Ifos 0.125 μg/ml, Gemcit 2 μg/ml, Doce 0.02 μg/ml, Carbo 2 μg/ml, Dacarb 1.5 μg/ml, re-dosed at 48 h; for Drug response score, conc. 1 / Drug response score, conc. 2 / Drug response score, conc. 3 / Drug response score, conc. 4: CTCs, t96h; for Drug response score, conc. 2: conc. 2: Doxo 30 ng/ml, Ifos 0.25 μg/ml, Gemcit 10 μg/ml, Doce 0.2 μg/ml, Carbo 5 μg/ml, Dacarb 3 μg/ml; for Drug response score, conc. 3: conc. 3: Doxo 90 ng/ml, Ifos 5 μg/ml, Gemcit 20 μg/ml, Doce 2 μg/ml, Carbo 10 μg/ml, Dacarb 6 μg/ml; for Drug response score, conc. 4: conc. 4: Doxo 270 ng/ml, Ifos 10 μg/ml, Gemcit 40 μg/ml, Doce 10 μg/ml, Carbo 20 μg/ml, Dacarb 12 μg/ml
Description: as §1, §2, §3, §4, §5, §6, §7, §8
Blood samples from a patient with stage II synovial sarcoma (suspected spindle cell tumour) were received and tested using a 6 drug panel.
Chemotherapeutic agents were tested as in Table 3.

[4] = tested on: Circulating Tumour Cells (CTCs) from a patient with renal cancer; experiment: Drug response score assay on CTCs (with CD45+ cells for immunotherapy) from blood, Example 7; design: key to Drug response score, conc. 1 / Drug response score, conc. 2 / Drug response score, conc. 3 / Drug response score, conc. 4: normalized drug response metric per Gupta et al. 2020; details: for Drug response score, conc. 1: conc. 1: Pembr 20 μg/ml (CTCs + CD45+ cells), Docetax 0.02 μg/ml, Gemcit 2 μg/ml, Topo 5 μg/ml, Etop 1 μg/ml, Eribul 5 μg/ml (CTCs); for Drug response score, conc. 1 / Drug response score, conc. 2 / Drug response score, conc. 3 / Drug response score, conc. 4: t96h; for Drug response score, conc. 2: conc. 2: Pembr 40 μg/ml (CTCs + CD45+ cells), Docetax 0.2 μg/ml, Gemcit 10 μg/ml, Topo 10 μg/ml, Etop 4 μg/ml, Eribul 10 μg/ml (CTCs); for Drug response score, conc. 3: conc. 3: Pembr 100 μg/ml (CTCs + CD45+ cells), Docetax 2 μg/ml, Gemcit 20 μg/ml, Topo 50 μg/ml, Etop 20 μg/ml, Eribul 20 μg/ml (CTCs); for Drug response score, conc. 4: conc. 4: Pembr 160 μg/ml (CTCs + CD45+ cells), Docetax 10 μg/ml, Gemcit 40 μg/ml, Topo 100 μg/ml, Etop 100 μg/ml, Eribul 40 μg/ml (CTCs); for Drug sensitivity as calculated by the assay (interpretation of Drug Response Scores): Table 23
Description: as §1, §2
The supernatant was removed from the CD45^+falcon tube, and the cells resuspended in DMEM with 2 μl Cell Tox, 2 μl MT and 2 μl MT. 20 μl of the resuspended CD45^+ cells was then plated in each well which will contain an immunotherapy treatment.
as §3, §4, §5, §6, §7
The sensitivity or resistance of a subject's cancer to a given immunotherapeutic or chemotherapeutic agent was determined based on the calculated drug response score as shown in Table 2. […]

SMILES	Drug response score, conc. 1 [1]	Drug response score, conc. 2 [1]	Drug response score, conc. 3 [1]	Drug response score, conc. 4 [1]	effectiveness on Circulating Tumour Cells (CTCs) under laboratory conditions [1]	Drug sensitivity as calculated by the assay (interpretation of Drug Response Scores) [1]	Drug response score, conc. 1 [2]	Drug response score, conc. 2 [2]	Drug response score, conc. 3 [2]	Drug response score, conc. 4 [2]	Drug sensitivity as calculated by the assay (interpretation of Drug Response Scores) ([2]; sigmoid colon cancer CTCs)	also measured
Cn1cnc2c(F)c(Nc3ccc(Br)cc3F)c(C(=O)NOCCO)cc21 [Binimetinib]	0.93	1.18	1.19	1.06	not effective	Resistant						
N.N.O=C([O-])C1(C(=O)[O-])CCC1.[Pt+2] [Carboplatin]							6.6672	−0.0506	−0.8131	−0.1322	Sensitive (S++)	Drug response score, conc. 1 [3]: 1.4015; Drug response score, conc. 2 [3]: 0.6497; Drug response score, conc. 3 [3]: 0.4151; Drug response score, conc. 4 [3]: 0.4317; Drug sensitivity as calculated by the assay (interpretation of Drug Response Scores) ([3]; synovial sarcoma CTCs, Table 5): Sensitive (S+)
O=P1(N(CCCl)CCCl)NCCCO1 (stereo not drawn) [Cyclophosphamide]	0.97	0.58	0.41	0.94	show effectiveness	Sensitive (S++)	−0.3176	0.9581	0.6810	2.5058	Sensitive (S+)	effectiveness on Circulating Tumour Cells under laboratory conditions ([2]; sigmoid colon cancer CTCs): S+
CN(C)/N=N/c1[nH]cnc1C(N)=O [Dacarbazine]												Drug response score, conc. 1 [3]: 2.1563; Drug response score, conc. 2 [3]: 0.0887; Drug response score, conc. 3 [3]: 0.1691; Drug response score, conc. 4 [3]: 0.5700
C=C1C[C@@H]2CC[C@@]34C[C@H]5O[C@H]6[C@@H](O3)[C@H]3O[C@H](CC[C@@H]3O[C@H]6[C@H]5O4)CC(=O)C[C@@H]3[C@@H](OC)[C@@H](C[C@H](O)CN)O[C@H]3C[C@H]3O[C@@H](CC[C@@H]1O2)C[C@@H](C)C3=C [Eribuline]							4.4627	−0.1620	−0.0329	−0.4785	Sensitive (S++)	Drug response score, conc. 1 [4]: 0.4482; Drug response score, conc. 2 [4]: 0.0692; Drug response score, conc. 3 [4]: −0.1453; Drug response score, conc. 4 [4]: −0.0193; Drug sensitivity as calculated by the assay (interpretation of Drug Response Scores) ([4]; renal cancer CTCs): Sensitive (S+)
CC[C@@]1(O)C(=O)OCc2c1cc1n(c2=O)Cc2cc3c(CN(C)C)c(O)ccc3nc2-1 [Topotecan]												Drug response score, conc. 1 [4]: 0.1847; Drug response score, conc. 2 [4]: −0.0648; Drug response score, conc. 3 [4]: −0.0964; Drug response score, conc. 4 [4]: −0.1707; effectiveness on Circulating Tumour Cells under laboratory conditions ([4]; renal cancer CTCs): Sensitive S++; Drug sensitivity as calculated by the assay (interpretation of Drug Response Scores) ([4]; renal cancer CTCs): Sensitive (S++)
CC[C@]1(O)C[C@H]2CN(CCc3c([nH]c4ccccc34)[C@@](C(=O)OC)(c3cc4c(cc3OC)N(C=O)[C@H]3[C@@](O)(C(=O)OC)[C@H](OC(C)=O)[C@]5(CC)C=CCN6CC[C@]43[C@@H]65)C2)C1 [Vincristine]	3.35	1.24	1.83	1.29	not effective	Resistant						
